Reference: US11512097B2, “Heterocyclic compounds as Delta-5 desaturase inhibitors and methods of use” (Amgen Inc., priority 2019, dated 2022)

biological target: T1, Delta-5-Desaturase (D5D), membrane preparations of D5D-overexpressing HEK293 6E cells (Homo sapiens, UniProt O60427); test: In vitro measurement of Delta-5-Desaturase inhibitory activity using DGLA-CoA and Arachidonyl-CoA mass spectrometric assays; format: biochemical; conditions: D5D membrane 10 μg/mL, one-hour incubation, average of at least two independent runs
T1 construct: expressed in transfected cells; host or cells: HEK293 6E cells (membrane preparation)
Method: In Vitro Measurement of Delta-5-Desaturase Inhibitory Activity Using DGLA-CoA and Arachidonyl-CoA Mass Spectrometric Assays Membrane preparations of D5D-overexpressing HEK293 6E cells were prepared in which the total protein concentration was 5.6 mg/mL. Stock D5D membrane preparations were diluted in D5D assay buffer (25 mM 2-amino-2-(hydroxymethyl)-1,3-propanediol, pH 7.5 containing 10 mM MgCl2, 1 mM octyl glucoside (SigmaAldrich O-8001), 1 mM tris(2-carboxyethyl)phosphine hydrochloride (SigmaAldrich 646547)) to a final D5D membrane concentration of 10 μg/mL in an assay plate containing serially diluted test compounds. To 15 μL of this D5D preparation was added 15 μL of a substrate solution (0.25 mM NADH (nicotinamide adenine dinucleotide, Roche Diag. 10107735001), 0.25 mM adenosine triphosphate (SigmaAldrich A-3377), 0.05 mM coenzyme A hydrate (SigmaAldrich C-4282), and 0.01 mM DGLA (dihomo-g-linolenic acid, Sigma E-4504) in the same D5D assay buffer. After one-hour incubation at ambient temperature acetonitrile (30 μL) was added to quench the reaction and plates were centrifuged for 10 min @ 3,000 rpm. Mass spectrometric analysis involved a Rapidfire 360 SPE system coupled to an ABSciex API4000 Triple Quadrupole mass spectrometer using a C18 SPE cartridge (G9203-80105) with ionization in negative mode (solvent A=100% water; solvent B=100% acetonitrile, each solvent containing 5 mM ammonium acetate). DGLA-CoA and Arachidonyl-CoA were detected by multiple reaction monitoring (MRM) of the doubly charged parent ions at m/z 526.6 and 525.6, respectively. […] Sx is value from unknown sample, So is value from DMSO alone and Sc is value from no enzyme well. For CRC analysis, the % of inhibitions were analysed with 4 Parameter Logistic Model or Sigmoidal Dose-Response Model using XLfit (IDBS, Guilford, UK). The potency of the test item was expressed as IC50 nM, corresponding to the test item concentration able to inhibit the 50% of the enzyme maximal response. IC50 values were averaged values determined by at least two independent runs. The results presented in Table 15 have been generated with the in vitro assay described above. This assay may be used to test any of the compounds described herein to assess and characterize a compound's ability to inhibit D5D.

T1 sequence (O60427 whole entry, species assumed): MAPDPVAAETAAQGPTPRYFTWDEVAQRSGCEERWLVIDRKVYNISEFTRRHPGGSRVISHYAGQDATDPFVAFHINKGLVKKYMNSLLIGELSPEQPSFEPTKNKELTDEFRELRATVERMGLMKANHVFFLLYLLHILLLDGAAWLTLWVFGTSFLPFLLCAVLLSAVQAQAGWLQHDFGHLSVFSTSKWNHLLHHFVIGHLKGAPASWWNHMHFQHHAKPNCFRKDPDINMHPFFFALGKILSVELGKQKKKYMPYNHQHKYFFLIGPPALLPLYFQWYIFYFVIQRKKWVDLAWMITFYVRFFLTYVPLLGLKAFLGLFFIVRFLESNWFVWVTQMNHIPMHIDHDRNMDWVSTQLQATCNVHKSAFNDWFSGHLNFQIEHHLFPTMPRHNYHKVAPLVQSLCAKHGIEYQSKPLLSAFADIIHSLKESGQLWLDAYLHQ

`Cc1cn2c(=O)c(-c3cnn(CC4CC4(F)F)c3)c(C(F)(F)F)nc2[nH]1` (racemic) [Example 76, 6-{1-[(2,2-difluorocyclopropyl)methyl]-1H-pyrazol-4-yl}-2-methyl-7-(trifluoromethyl)-1H,5H-imidazo[1,2-a]pyrimidin-5-one] was tested. Which IC50 did it give?
The IC50 was 26 nM.

For `Cc1cn2c(=O)c(-c3cnn(C[C@H]4CC4(F)F)c3)c(C(F)(F)F)nc2[nH]1` (single isomer, unassigned) [Example 107], which IC50 is on record?
The IC50 was 12.5 nM.

For `Cc1cn2c(=O)c(-c3cnn(C[C@@H]4CC4(F)F)c3)c(C(F)(F)F)nc2[nH]1` (single isomer, unassigned) [Example 108], which IC50 is on record?
The IC50 was 12 nM.

`Cc1cn2c(=O)c(-c3cnn(C[C@H]4CC4(F)F)c3)c(C(F)(F)F)nc2n1C` (single isomer, unassigned) [Example 109] was tested. Which IC50 did it give?
The IC50 was 28.6 nM.

For `Cc1cn2c(=O)c(-c3cnn(C[C@@H]4CC4(F)F)c3)c(C(F)(F)F)nc2n1C` (single isomer, unassigned) [Example 110], which IC50 is on record?
The IC50 was 24.1 nM.

With `Cc1nn2c(=O)c(-c3cnn(C[C@H]4CC4(F)F)c3)c(C(F)(F)F)nc2s1` (single isomer, unassigned) [Example 111] as the compound, how does the IC50 read?
The IC50 was 452 nM.

For `Cc1nn2c(=O)c(-c3cnn(C[C@@H]4CC4(F)F)c3)c(C(F)(F)F)nc2s1` (single isomer, unassigned) [Example 112], which IC50 is on record?
Its IC50 is 861 nM.

`C[C@H]1Cn2c(nc(C(F)(F)F)c(-c3cnn(CC(F)(F)C(F)(F)F)c3)c2=O)S1` (single isomer, unassigned) [Example 113] was tested. Which IC50 did it give?
The IC50 was 11.8 nM.

Which IC50 does the source give for `C[C@@H]1Cn2c(nc(C(F)(F)F)c(-c3cnn(CC(F)(F)C(F)(F)F)c3)c2=O)S1` (single isomer, unassigned) [Example 114] here?
Its IC50 is 49.4 nM.

With `Cc1cn2c(=O)c(-c3cnn(CCC(F)(F)F)c3)c(C(F)(F)F)nc2n1C[C@@H]1CC1(F)F` (single isomer, unassigned) [Example 115] as the compound, how does the IC50 read?
The IC50 was 39 nM.

`Cc1cn2c(=O)c(-c3cnn(CCC(F)(F)F)c3)c(C(F)(F)F)nc2n1C[C@H]1CC1(F)F` (single isomer, unassigned) [Example 116] was tested. Which IC50 did it give?
Its IC50 is 1170 nM.

How did the IC50 turn out when `O=c1c(-c2cnn(CC(F)(F)C(F)(F)F)c2)c(C(F)(F)F)nc2sccn12` [Example 1, 6-[1-(2,2,3,3,3-pentafluoropropyl)-1H-pyrazol-4-yl]-7-(trifluoromethyl)-5H-[1,3]thiazolo[3,2-a]pyrimidin-5-one] was run?
The IC50 was 3.8 nM.

Which IC50 does the source give for `CN1C(=O)Cn2c1nc(C(F)(F)F)c(-c1cnn(CC(F)(F)C(F)(F)F)c1)c2=O` [Example 3, 1-methyl-6-[1-(2,2,3,3,3-pentafluoropropyl)-1H-pyrazol-4-yl]-7-(trifluoromethyl)-1H,2H,3H,5H-imidazo[1,2-a]pyrimidine-2,5-dione] here?
The IC50 was 25.7 nM.

With `Cc1cn2c(=O)c(-c3cnn(CC(F)(F)C(F)(F)F)c3)c(C(F)(F)F)nc2s1` [Example 4, 2-methyl-6-[1-(2,2,3,3,3-pentafluoropropyl)-1H-pyrazol-4-yl]-7-(trifluoromethyl)-5H-[1,3]thiazolo[3,2-a]pyrimidin-5-one] as the compound, how does the IC50 read?
Its IC50 is 17.8 nM.

`Cc1csc2nc(C(F)(F)F)c(-c3cnn(CC(F)(F)C(F)(F)F)c3)c(=O)n12` [Example 5, 3-methyl-6-[1-(2,2,3,3,3-pentafluoropropyl)-1H-pyrazol-4-yl]-7-(trifluoromethyl)-5H-[1,3]thiazolo[3,2-a]pyrimidin-5-one] was tested. Which IC50 did it give?
Its IC50 is 482 nM.

Which IC50 does the source give for `O=c1c(-c2cnn(CC(F)(F)C(F)(F)F)c2)c(C(F)(F)F)nc2scc(C(F)(F)F)n12` [Example 6, 6-[1-(2,2,3,3,3-pentafluoropropyl)-1H-pyrazol-4-yl]-3,7-bis(trifluoromethyl)-5H-[1,3]thiazolo[3,2-a]pyrimidin-5-one] here?
Its IC50 is 271 nM.

Which IC50 does the source give for `O=c1c(-c2cnn(CC(F)(F)C(F)(F)F)c2)c(C(F)(F)F)nc2sc(F)cn12` [Example 7, 2-fluoro-6-[1-(2,2,3,3,3-pentafluoropropyl)-1H-pyrazol-4-yl]-7-(trifluoromethyl)-5H-[1,3]thiazolo[3,2-a]pyrimidin-5-one] here?
Its IC50 is 1.3 nM.

For `O=c1c(-c2cnn(CCC(F)(F)F)c2)c(C(F)(F)F)nc2sccn12` [Example 8, 7-(trifluoromethyl)-6-[1-(3,3,3-trifluoropropyl)-1H-pyrazol-4-yl]-5H-[1,3]thiazolo[3,2-a]pyrimidin-5-one], which IC50 is on record?
The IC50 was 4.6 nM.

Which IC50 does the source give for `O=c1c(-c2cnn(CC(F)(F)C(F)(F)F)c2)c(C(F)(F)F)nc2sc(Cl)cn12` [Example 9, 2-chloro-6-[1-(2,2,3,3,3-pentafluoropropyl)-1H-pyrazol-4-yl]-7-(trifluoromethyl)-5H-[1,3]thiazolo[3,2-a]pyrimidin-5-one] here?
The IC50 was 6.4 nM.

How did the IC50 turn out when `COCc1nn2c(=O)c(-c3cnn(CCC(F)(F)F)c3)c(C(F)(F)F)nc2s1` [Example 10, 2-(methoxymethyl)-7-(trifluoromethyl)-6-[1-(3,3,3-trifluoropropyl)-1H-pyrazol-4-yl]-5H-[1,3,4]thiadiazolo[3,2-a]pyrimidin-5-one] was run?
The IC50 was 27.4 nM.

Which IC50 does the source give for `O=c1c(-c2cnn(CC(F)(F)C(F)(F)F)c2)c(C(F)(F)F)nc2sc(C3CC3)nn12` [Example 11, 2-cyclopropyl-6-[1-(2,2,3,3,3-pentafluoropropyl)-1H-pyrazol-4-yl]-7-(trifluoromethyl)-5H-[1,3,4]thiadiazolo[3,2-a]pyrimidin-5-one] here?
Its IC50 is 133 nM.

How did the IC50 turn out when `O=c1c(-c2cnn(CCC(F)(F)F)c2)c(C(F)(F)F)nc2sc(C3CC3)nn12` [Example 12, 2-cyclopropyl-7-(trifluoromethyl)-6-[1-(3,3,3-trifluoropropyl)-1H-pyrazol-4-yl]-5H-[1,3,4]thiadiazolo[3,2-a]pyrimidin-5-one] was run?
Its IC50 is 248 nM.

How did the IC50 turn out when `Cc1nn2c(=O)c(-c3cnn(CC(F)(F)C(F)(F)F)c3)c(C(F)(F)F)nc2n1C` [Example 13, 2,3-dimethyl-6-[1-(2,2,3,3,3-pentafluoropropyl)-1H-pyrazol-4-yl]-5-(trifluoromethyl)-3H,7H-[1,2,4]triazolo[1,5-a]pyrimidin-7-one] was run?
Its IC50 is 249 nM.

Which IC50 does the source give for `Cc1nn2c(=O)c(-c3cnn(CCC(F)(F)F)c3)c(C(F)(F)F)nc2n1C` [Example 14, 2,3-dimethyl-5-(trifluoromethyl)-6-[1-(3,3,3-trifluoropropyl)-1H-pyrazol-4-yl]-3H,7H-[1,2,4]triazolo[1,5-a]pyrimidin-7-one] here?
Its IC50 is 1430 nM.

How did the IC50 turn out when `CCc1nc2sc(C)nn2c(=O)c1-c1cnn(CC(F)(F)C(F)(F)F)c1` [Example 15, 7-ethyl-2-methyl-6-[1-(2,2,3,3,3-pentafluoropropyl)-1H-pyrazol-4-yl]-5H-[1,3,4]thiadiazolo[3,2-a]pyrimidin-5-one] was run?
The IC50 was 1510 nM.

Which IC50 does the source give for `Cc1cc2nc(C(F)(F)F)c(-c3cnn(CC(F)(F)C(F)(F)F)c3)c(=O)n2n1C` [Example 16, 1,2-dimethyl-6-[1-(2,2,3,3,3-pentafluoropropyl)-1H-pyrazol-4-yl]-5-(trifluoromethyl)-1H,7H-pyrazolo[1,5-a]pyrimidin-7-one] here?
Its IC50 is 9410 nM.

Which IC50 does the source give for `Cn1ccc2nc(C(F)(F)F)c(-c3cnn(CC(F)(F)C(F)(F)F)c3)c(=O)n21` [Example 17, 1-methyl-6-[1-(2,2,3,3,3-pentafluoropropyl)-1H-pyrazol-4-yl]-5-(trifluoromethyl)-1H,7H-pyrazolo[1,5-a]pyrimidin-7-one] here?
The IC50 was 363 nM.

Which IC50 does the source give for `Cc1cn(C)n2c(=O)c(-c3cnn(CC(F)(F)C(F)(F)F)c3)c(C(F)(F)F)nc12` [Example 18, 1,3-dimethyl-6-[1-(2,2,3,3,3-pentafluoropropyl)-1H-pyrazol-4-yl]-5-(trifluoromethyl)-1H,7H-pyrazolo[1,5-a]pyrimidin-7-one] here?
The IC50 was 3630 nM.

With `O=c1c(-c2cnn(CC(F)(F)C(F)(F)F)c2)c(C(F)(F)F)nc2n1CCC2` [Example 19, 3-[1-(2,2,3,3,3-pentafluoropropyl)-1H-pyrazol-4-yl]-2-(trifluoromethyl)-4H,6H,7H,8H-pyrrolo[1,2-a]pyrimidin-4-one] as the compound, how does the IC50 read?
Its IC50 is 46.3 nM.

For `Cc1nn2c(=O)c(-c3cnn(CCC(F)(F)F)c3)c(C(F)(F)F)nc2s1` [Example 20, 2-methyl-7-(trifluoromethyl)-6-[1-(3,3,3-trifluoropropyl)-1H-pyrazol-4-yl]-5H-[1,3,4]thiadiazolo[3,2-a]pyrimidin-5-one], which IC50 is on record?
Its IC50 is 32.9 nM.

Which IC50 does the source give for `O=c1c(-c2cnn(CCC(F)(F)F)c2)c(C(F)(F)F)nc2n1CCC2` [Example 21, 2-(trifluoromethyl)-3-[1-(3,3,3-trifluoropropyl)-1H-pyrazol-4-yl]-4H,6H,7H,8H-pyrrolo[1,2-a]pyrimidin-4-one] here?
The IC50 was 235 nM.

How did the IC50 turn out when `O=c1c(-c2cnn(CC(F)(F)C(F)(F)F)c2)c(C(F)(F)F)nc2n1CCS2` [Example 22, 6-[1-(2,2,3,3,3-pentafluoropropyl)-1H-pyrazol-4-yl]-7-(trifluoromethyl)-2H,3H,5H-[1,3]thiazolo[3,2-a]pyrimidin-5-one] was run?
The IC50 was 14.3 nM.
